Laboratory results published in patent US20140093550A1 (priority 2012, published 2014).

Columns and labels:
[1] = system: Legionella pneumophila biofilm; type: cell-based, Legionella pneumophila strain Philadelphia 1 (ATCC 33152); conditions: 7 days; nanoparticles 1 microgram/milliliter, chlorine dioxide 0.1 ppm
[2] = system: Legionella pneumophila biofilm; type: cell-based, Legionella pneumophila strain Philadelphia 1 (ATCC 33152); conditions: 5 days post-treatment after 7 days of treatment (Example 7 biofilms)

For `[O][Cl+][O-]` [chlorine dioxide biocide, chlorine dioxide], the “biomass of biofilm after treatment (Example 7, FIG. 14)” value [1] was “about 0.5 micrometers^3/micrometers^2” and the “fold increase in biomass on day 12” value [2] was about 1.25 fold.
